# In ChEMBL document CHEMBL4831486, “Design, synthesis and biological evaluation of pleuromutilin-Schiff base hybrids as potent anti-MRSA agents in vitro and in vivo” (Eur J Med Chem, 2021):
# Assays:
# Escherichia coli [1] = test: Bactericidal activity against Escherichia coli ATCC 25922 assessed as inhibition of bacterial growth measured after 96 hrs by broth dilution method; format: functional
# Escherichia coli [2] = test: Antibacterial activity against Escherichia coli ATCC 25922 assessed as inhibition of bacterial growth measured after 24 hrs by broth dilution method; format: functional
# Staphylococcus aureus [3] = test: Bactericidal activity against Methycillin-resistant Staphylococcus aureus ATCC 43300 assessed as inhibition of bacterial growth measured after 96 hrs by broth dilution method; format: functional
# Staphylococcus aureus [4] = test: Antibacterial activity against Methycillin-resistant Staphylococcus aureus ATCC 43300 assessed as inhibition of bacterial growth measured after 24 hrs by broth dilution method; format: functional
# Staphylococcus aureus [5] = test: Antibacterial activity against Staphylococcus aureus 144 assessed as inhibition of bacterial growth measured after 24 hrs by broth dilution method; format: functional
# Staphylococcus aureus [6] = test: Bactericidal activity against Staphylococcus aureus 144 assessed as inhibition of bacterial growth measured after 96 hrs by broth dilution method; format: functional
# Staphylococcus aureus [7] = test: Bactericidal activity against Staphylococcus aureus AD3 assessed as inhibition of bacterial growth measured after 96 hrs by broth dilution method; format: functional
# Staphylococcus aureus [8] = test: Antibacterial activity against Staphylococcus aureus ATCC 29213 assessed as inhibition of bacterial growth measured after 24 hrs by broth dilution method; format: functional
# Staphylococcus aureus [9] = test: Bactericidal activity against Staphylococcus aureus ATCC 29213 assessed as inhibition of bacterial growth measured after 96 hrs by broth dilution method; format: functional
# HepG2 = test: Cytotoxicity against human HepG2 cells assessed as reduced cell viability at 4 ug/ml measured after 16 hrs by MTT assay; format: cell-based; conditions: hepg2, 16 h, dose 4 µg/ml
# RAW264.7 = test: Cytotoxicity against mouse RAW264.7 cells assessed as reduced cell viability at 4 ug/ml measured after 16 hrs by MTT assay; format: cell-based; conditions: raw264.7, 16 h, dose 4 µg/ml
# Staphylococcus aureus [10] = test: Antibacterial activity against Staphylococcus aureus AD3 assessed as inhibition of bacterial growth measured after 24 hrs by broth dilution method; format: functional
smiles,measurement,setting,value
C=C[C@]1(C)C[C@@H](OC(=O)CSc2nnc(C)n2/N=C/c2cccc(Cl)c2)[C@]2(C)[C@H](C)CC[C@]3(CCC(=O)[C@H]32)[C@@H](C)[C@@H]1O,MBC,Escherichia coli [1],> 64 µg/mL
same,MIC,Escherichia coli [2],> 64 µg/mL
same,MBC,Staphylococcus aureus [3],2 µg/mL
same,MIC,Staphylococcus aureus [4],1 µg/mL
same,MIC,Staphylococcus aureus [5],2 µg/mL
same,MBC,Staphylococcus aureus [6],4 µg/mL
same,MBC,Staphylococcus aureus [7],4 µg/mL
same,MIC,Staphylococcus aureus [8],1 µg/mL
same,MBC,Staphylococcus aureus [9],4 µg/mL
same,Activity,HepG2,Non-Toxic
same,Activity,RAW264.7,Non-Toxic
same,MIC,Staphylococcus aureus [10],2 µg/mL
C=C[C@]1(C)C[C@@H](OC(=O)CSc2nnc(C)n2/N=C/c2ccc(Cl)cc2)[C@]2(C)[C@H](C)CC[C@]3(CCC(=O)[C@H]32)[C@@H](C)[C@@H]1O,MBC,Escherichia coli [1],> 64 µg/mL
same,MIC,Escherichia coli [2],> 64 µg/mL
same,MBC,Staphylococcus aureus [3],2 µg/mL
same,MIC,Staphylococcus aureus [4],0.5 µg/mL
same,MIC,Staphylococcus aureus [5],2 µg/mL
same,MBC,Staphylococcus aureus [6],4 µg/mL
same,MBC,Staphylococcus aureus [7],4 µg/mL
same,MIC,Staphylococcus aureus [8],1 µg/mL
same,MBC,Staphylococcus aureus [9],2 µg/mL
same,Activity,HepG2,Non-Toxic
same,Activity,RAW264.7,Non-Toxic
same,MIC,Staphylococcus aureus [10],1 µg/mL
C=C[C@]1(C)C[C@@H](OC(=O)CSc2nnc(C)n2/N=C/c2ccccc2)[C@]2(C)[C@H](C)CC[C@]3(CCC(=O)[C@H]32)[C@@H](C)[C@@H]1O,MBC,Escherichia coli [1],> 64 µg/mL
same,MIC,Escherichia coli [2],> 64 µg/mL
same,MBC,Staphylococcus aureus [3],1 µg/mL
same,MIC,Staphylococcus aureus [4],0.5 µg/mL
same,MIC,Staphylococcus aureus [5],2 µg/mL
same,MBC,Staphylococcus aureus [6],4 µg/mL
same,MBC,Staphylococcus aureus [7],4 µg/mL
same,MIC,Staphylococcus aureus [8],1 µg/mL
same,MBC,Staphylococcus aureus [9],2 µg/mL
same,Activity,HepG2,Non-Toxic
same,Activity,RAW264.7,Non-Toxic
same,MIC,Staphylococcus aureus [10],1 µg/mL
C=C[C@]1(C)C[C@@H](OC(=O)CSc2nnc(C)n2/N=C/c2ccc([N+](=O)[O-])cc2)[C@]2(C)[C@H](C)CC[C@]3(CCC(=O)[C@H]32)[C@@H](C)[C@@H]1O,MBC,Escherichia coli [1],> 64 µg/mL
same,MIC,Escherichia coli [2],> 64 µg/mL
same,MBC,Staphylococcus aureus [3],2 µg/mL
same,MIC,Staphylococcus aureus [4],1 µg/mL
same,MIC,Staphylococcus aureus [5],2 µg/mL
same,MBC,Staphylococcus aureus [6],8 µg/mL
same,MBC,Staphylococcus aureus [7],8 µg/mL
same,MIC,Staphylococcus aureus [8],2 µg/mL
same,MBC,Staphylococcus aureus [9],4 µg/mL
same,Activity,HepG2,Non-Toxic
same,Activity,RAW264.7,Non-Toxic
same,MIC,Staphylococcus aureus [10],2 µg/mL
C=C[C@]1(C)C[C@@H](OC(=O)CSc2nnc(C)n2/N=C/c2cccc(O)c2)[C@]2(C)[C@H](C)CC[C@]3(CCC(=O)[C@H]32)[C@@H](C)[C@@H]1O,MBC,Escherichia coli [1],> 64 µg/mL
same,MIC,Escherichia coli [2],> 64 µg/mL
same,MBC,Staphylococcus aureus [3],1 µg/mL
same,MIC,Staphylococcus aureus [4],0.5 µg/mL
same,MIC,Staphylococcus aureus [5],2 µg/mL
same,MBC,Staphylococcus aureus [6],4 µg/mL
same,MBC,Staphylococcus aureus [7],4 µg/mL
same,MIC,Staphylococcus aureus [8],0.5 µg/mL
same,MBC,Staphylococcus aureus [9],2 µg/mL
same,Activity,HepG2,Non-Toxic
same,Activity,RAW264.7,Non-Toxic
same,MIC,Staphylococcus aureus [10],1 µg/mL
C=C[C@]1(C)C[C@@H](OC(=O)CSc2nnc(C)n2/N=C/c2cccc(F)c2)[C@]2(C)[C@H](C)CC[C@]3(CCC(=O)[C@H]32)[C@@H](C)[C@@H]1O,MBC,Escherichia coli [1],> 64 µg/mL
same,MIC,Escherichia coli [2],> 64 µg/mL
same,MBC,Staphylococcus aureus [3],1 µg/mL
same,MIC,Staphylococcus aureus [4],0.5 µg/mL
same,MIC,Staphylococcus aureus [5],2 µg/mL
same,MBC,Staphylococcus aureus [6],4 µg/mL
same,MBC,Staphylococcus aureus [7],4 µg/mL
same,MIC,Staphylococcus aureus [8],1 µg/mL
same,MBC,Staphylococcus aureus [9],4 µg/mL
same,Activity,HepG2,Non-Toxic
same,Activity,RAW264.7,Non-Toxic
same,MIC,Staphylococcus aureus [10],1 µg/mL
C=C[C@]1(C)C[C@@H](OC(=O)CSc2nnc(C)n2/N=C/c2ccccc2F)[C@]2(C)[C@H](C)CC[C@]3(CCC(=O)[C@H]32)[C@@H](C)[C@@H]1O,MBC,Escherichia coli [1],> 64 µg/mL
same,MIC,Escherichia coli [2],> 64 µg/mL
same,MBC,Staphylococcus aureus [3],1 µg/mL
same,MIC,Staphylococcus aureus [4],0.5 µg/mL
same,MIC,Staphylococcus aureus [5],2 µg/mL
same,MBC,Staphylococcus aureus [6],4 µg/mL
same,MBC,Staphylococcus aureus [7],4 µg/mL
same,MIC,Staphylococcus aureus [8],1 µg/mL
same,MBC,Staphylococcus aureus [9],2 µg/mL
same,Activity,HepG2,Non-Toxic
same,Activity,RAW264.7,Non-Toxic
same,MIC,Staphylococcus aureus [10],1 µg/mL
C=C[C@]1(C)C[C@@H](OC(=O)CO)[C@]2(C)[C@H](C)CC[C@]3(CCC(=O)[C@H]32)[C@@H](C)[C@@H]1O [PLEUROMULIN],MBC,Escherichia coli [1],> 64 µg/mL
same,MIC,Escherichia coli [2],> 64 µg/mL
same,MBC,Staphylococcus aureus [3],4 µg/mL
same,MIC,Staphylococcus aureus [4],2 µg/mL
same,MIC,Staphylococcus aureus [5],2 µg/mL
same,MBC,Staphylococcus aureus [6],4 µg/mL
same,MBC,Staphylococcus aureus [7],4 µg/mL
same,MIC,Staphylococcus aureus [8],2 µg/mL
same,MBC,Staphylococcus aureus [9],4 µg/mL
same,MIC,Staphylococcus aureus [10],2 µg/mL
